Reference: PubChem BioAssay AID1963839 (Molecular Pharmacology Branch, DTP, NCI, 2024)

System: 817829-284-R-J1-PDC complex spheroid viability
Experiment: Anticancer human tumor 817829-284-R-J1-PDC patient-derived colon adenocarcinoma cell line growth inhibition [POLQ]
Settings: for IC50: curve of first compound; for viability, T/C: stronger effect = lower value
In short: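 PDC + HUVEC + MSC complex spheroids; POLQ inhibitors ± partner drugs; top conc. at/near clinical Cmax, else 10 microM (SN-38 1 microM), half-log dilutions; 37 degrees C, 5% CO2.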
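Further: spheroids exposed to compounds for 7 days.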
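Wherever viability, T/C is given: 100% = DMSO vehicle-treated spheroids.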

For `CC(=O)O[C@H]1C(=O)[C@@]2(C)[C@H]([C@H](OC(=O)c3ccccc3)[C@]3(O)C[C@H](OC(=O)[C@H](O)[C@@H](NC(=O)c4ccccc4)c4ccccc4)C(C)=C1C3(C)C)[C@]1(OC(C)=O)CO[C@@H]1C[C@@H]2O` + Cc1cccc(N(C)C(=O)C2C(O)CCN2c2nc(C)cc(C(F)(F)F)c2C#N)c1, the IC50 (second compound 0.0316 µM) was < 9.49 nM, the IC50 (second compound 0.1 µM) was < 9.49 nM and the IC50 (second compound 0.316 µM) was < 9.49 nM. For the same molecule, the IC50 (second compound 1 µM) was < 9.49 nM, the IC50 (second compound 3.16 µM) was < 9.49 nM and the IC50 (second compound 10 µM) was < 9.49 nM. It also gave a viability, T/C (second compound 0.0316 µM, first compound 0.00949 µM) of 4.71%, a viability, T/C (second compound 0.0316 µM, first compound 0.03 µM) of 4.06% and a viability, T/C (second compound 0.0316 µM, first compound 0.0949 µM) of 3.84%. The viability, T/C (second compound 0.0316 µM, first compound 0.3 µM) was 3.78%, the viability, T/C (second compound 0.0316 µM, first compound 0.949 µM) was 3.98% and the viability, T/C (second compound 0.0316 µM, first compound 3 µM) was 4.66%. It also gave a viability, T/C (second compound 0.1 µM, first compound 0.00949 µM) of 4.94%, a viability, T/C (second compound 0.1 µM, first compound 0.03 µM) of 4.36% and a viability, T/C (second compound 0.1 µM, first compound 0.0949 µM) of 3.84%. For the same molecule, the viability, T/C (second compound 0.1 µM, first compound 0.3 µM) was 4.37%, the viability, T/C (second compound 0.1 µM, first compound 0.949 µM) was 4.32% and the viability, T/C (second compound 0.1 µM, first compound 3 µM) was 4.51%. It also gave a viability, T/C (second compound 0.316 µM, first compound 0.00949 µM) of 4.66%, a viability, T/C (second compound 0.316 µM, first compound 0.03 µM) of 4.72% and a viability, T/C (second compound 0.316 µM, first compound 0.0949 µM) of 4.39%. For the same molecule, the viability, T/C (second compound 0.316 µM, first compound 0.3 µM) was 4.37%, the viability, T/C (second compound 0.316 µM, first compound 0.949 µM) was 4.24% and the viability, T/C (second compound 0.316 µM, first compound 3 µM) was 3.51%. For the same molecule, the viability, T/C (second compound 1 µM, first compound 0.00949 µM) was 4.57%, the viability, T/C (second compound 1 µM, first compound 0.03 µM) was 8.02% and the viability, T/C (second compound 1 µM, first compound 0.0949 µM) was 4.15%. It also gave a viability, T/C (second compound 1 µM, first compound 0.3 µM) of 4.37%, a viability, T/C (second compound 1 µM, first compound 0.949 µM) of 4.04% and a viability, T/C (second compound 1 µM, first compound 3 µM) of 4.46%. The viability, T/C (second compound 3.16 µM, first compound 0.00949 µM) was 4.41%, the viability, T/C (second compound 3.16 µM, first compound 0.03 µM) was 3.99% and the viability, T/C (second compound 3.16 µM, first compound 0.0949 µM) was 4.51%. For the same molecule, the viability, T/C (second compound 3.16 µM, first compound 0.3 µM) was 4.14%, the viability, T/C (second compound 3.16 µM, first compound 0.949 µM) was 3.93% and the viability, T/C (second compound 3.16 µM, first compound 3 µM) was 3.87%. It also gave a viability, T/C (second compound 10 µM, first compound 0.00949 µM) of 4.67%, a viability, T/C (second compound 10 µM, first compound 0.03 µM) of 3.97% and a viability, T/C (second compound 10 µM, first compound 0.0949 µM) of 4.2%. For the same molecule, the viability, T/C (second compound 10 µM, first compound 0.3 µM) was 4.14%, the viability, T/C (second compound 10 µM, first compound 0.949 µM) was 4.11% and the viability, T/C (second compound 10 µM, first compound 3 µM) was 4.13%.
